Consider 15 molecules from patent US20120101095A1, “ALKOXY-THIENOPYRIMIDINES AS TGF-BETA RECEPTOR KINASE MODULATORS” (priority 2009, published 2012).

In general, IC50 refers to the concentration at which inhibition is half-maximal.

This experiment deals with T1, GST-ALK5 (Homo sapiens, UniProt P36897).
T1 sequence (P36897 34-503): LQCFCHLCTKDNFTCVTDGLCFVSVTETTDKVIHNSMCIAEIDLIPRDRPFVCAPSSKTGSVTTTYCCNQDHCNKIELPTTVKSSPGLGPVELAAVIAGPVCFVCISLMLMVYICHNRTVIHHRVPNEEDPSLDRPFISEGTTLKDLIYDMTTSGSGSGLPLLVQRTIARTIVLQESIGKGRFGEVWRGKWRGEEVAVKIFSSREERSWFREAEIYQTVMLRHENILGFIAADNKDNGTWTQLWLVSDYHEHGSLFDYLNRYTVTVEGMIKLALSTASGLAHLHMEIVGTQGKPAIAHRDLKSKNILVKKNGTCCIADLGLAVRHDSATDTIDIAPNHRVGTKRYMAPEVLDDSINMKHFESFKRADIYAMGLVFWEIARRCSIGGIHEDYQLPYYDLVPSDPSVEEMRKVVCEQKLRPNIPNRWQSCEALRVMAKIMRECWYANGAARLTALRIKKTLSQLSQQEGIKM
Put plainly: In-vitro (enzyme) kinase assay, 384-well flashplate, GST-SMAD2 substrate. In kind it is biochemical. The settings on record: 31.2 nM GST-ALK5, 439 nM GST-SMAD2, 3 mM ATP, 30° C., 45 min. How it is done: In-Vitro (Enzyme) Assay for Determination of the Efficacy of Inhibitors of the Inhibition of TGF-Beta-Mediated Effects
The kinase assay was carried out as 384-well flashplate assay. 31.2 nM of GST-ALK5, 439 nM of GST-SMAD2 and 3 mM of ATP (with 0.3 μCi of ^33P-ATP/well) were incubated in a total volume of 35 μl (20 mM of HEPES, 10 mM of MgCl2, 5 mM of MnCl2, 1 mM of DTT, 0.1% of BSA, pH 7.4) without or with test substance (5-10 concentrations) at 30° C. for 45 min. The reaction was stopped using 25 μl of 200 mM EDTA solution, filtered with suction at room temperature after 30 min, and the wells were washed with 3 times 100 μl of 0.9% NaCl solution. Radioactivity was measured in the TopCount. The IC50 values were calculated using RS1 (Table 1). Above and below, all temperatures were indicated in ° C.
Regarding `NC(=O)c1sc2nc(OCCn3ccnc3)nc(-c3cccc(Cl)c3)c2c1N` [No 43, 5-Amino-4-(3-chloro-phenyl)-2-(2-imidazol-1-yl-ethoxy)-thieno[2,3-d]pyrimidine-6-carboxylic acid amide], the IC50 fell in the range of 100 to 500 nM.

On to `C=CCOc1nc(-c2cccc(Cl)c2)c2c(N)c(C(N)=O)sc2n1` [No 3, 2-Allyloxy-5-amino-4-(3-chloro-phenyl)-thieno[2,3-d]pyrimidine-6-carboxylic acid amide], for which the IC50 was less than 100 nM.

The molecule `Cc1ncsc1CCOc1nc(-c2cccc(Cl)c2)c2c(N)c(C(N)=O)sc2n1` [No 51, 5-Amino-4-(3-chloro-phenyl)-2-[2-(4-methyl-thiazol-5-yl)-ethoxy]-thieno[2,3-d]pyrimidine-6-carboxylic acid amide] gave a half-inhibitory concentration (IC50) of less than 100 nM.

`COc1nc(-c2cccc(C(F)(F)F)c2)c2c(N)c(C(N)=O)sc2n1` [No 5, 5-Amino-2-methoxy-4-(3-trifluoromethyl-phenyl)-thieno[2,3-d]pyrimidine-6-carboxylic acid amide] showed an IC50 of 100 to 500 nM.

`Cc1ccc(-c2nc(OCCO)nc3sc(C(N)=O)c(N)c23)o1` [No 21, 5-Amino-2-(2-hydroxy-ethoxy)-4-(5-methyl-furan-2-yl)-thieno[2,3-d]pyrimidine-6-carboxylic acid amide] displayed a 50% inhibitory concentration (IC50) of 100 to 500 nM.

`NC(=O)c1sc2nc(OCCCCC3NC(=O)NC3=O)nc(-c3cccc(Cl)c3)c2c1N` (stereo not drawn) [No 78, 5-Amino-4-(3-chloro-phenyl)-2-[4-(2,5-dioxo-imidazolidin-4-yl)-butoxy]-thieno[2,3-d]pyrimidine-6-carboxylic acid amide] returned an IC50 of less than 100 nM.

As to `Cn1ccc(COc2nc(-c3cccc(Cl)c3)c3c(N)c(C(N)=O)sc3n2)n1` [No 46, 5-Amino-4-(3-chloro-phenyl)-2-(1-methyl-1H-pyrazol-3-ylmethoxy)-thieno[2,3-d]pyrimidine-6-carboxylic acid amide], the IC50 was less than 100 nM.

`NC(=O)c1sc2nc(OCC3CC3)nc(-c3cccc(Cl)c3)c2c1N` [No 4, 5-Amino-4-(3-chloro-phenyl)-2-cyclopropylmethoxy-thieno[2,3-d]pyrimidine-6-carboxylic acid amide]: the half-inhibitory concentration (IC50) is less than 100 nM.

Take `Cn1cnc(COc2nc(-c3cccc(Cl)c3)c3c(N)c(C(N)=O)sc3n2)c1` [No 45, 5-Amino-4-(3-chloro-phenyl)-2-(1-methyl-1H-imidazol-4-ylmethoxy)-thieno[2,3-d]pyrimidine-6-carboxylic acid amide]: the half-inhibitory concentration (IC50) is less than 100 nM.

In turn, `Cc1cccc(-c2nc(OCCCn3cccn3)nc3sc(C(N)=O)c(N)c23)n1` [No 49, 5-Amino-4-(6-methyl-pyridin-2-yl)-2-(3-pyrazol-1-yl-propoxy)-thieno[2,3-d]pyrimidine-6-carboxylic acid amide] returned an IC50 of less than 100 nM.

Regarding `Cc1ccc(-c2nc(O[C@@H](C)[C@H](C)O)nc3sc(C(N)=O)c(N)c23)o1` [No 36, 5-Amino-2-((1S,2S)-2-hydroxy-1-methyl-propoxy)-4-(5-methyl-furan-2-yl)-thieno[2,3-d]pyrimidine-6-carboxylic acid amide], the IC50 fell in the range of 100 to 500 nM.

Molecule `Cc1cccc(-c2nc(OCc3cn(C)cn3)nc3sc(C(N)=O)c(N)c23)n1` [No 40, 5-Amino-2-(1-methyl-1H-imidazol-4-ylmethoxy)-4-(6-methyl-pyridin-2-yl)-thieno[2,3-d]pyrimidine-6-carboxylic acid amide] yielded an IC50 of less than 100 nM.

For `Cc1ccc(-c2nc(OCc3ccncc3)nc3sc(C(N)=O)c(N)c23)o1` [No 30, 5-Amino-4-(5-methyl-furan-2-yl)-2-(pyridin-4-ylmethoxy)-thieno[2,3-d]pyrimidine-6-carboxylic acid amide], the IC50 lay within 500 to 1000 nM.

With `Cn1cc(COc2nc(-c3cccc(Cl)c3)c3c(N)c(C(N)=O)sc3n2)cn1` [No 44, 5-Amino-4-(3-chloro-phenyl)-2-(1-methyl-1H-pyrazol-4-ylmethoxy)-thieno[2,3-d]pyrimidine-6-carboxylic acid amide], the IC50 is less than 100 nM.

On to `NC(=O)c1sc2nc(OCC3CC3)nc(-c3cc4ccccc4s3)c2c1N` [No 2], for which the concentration for half-maximal inhibition (IC50) is greater than 1000 nM.
